# Measured values published in patent US20180360972A1, “THERAPEUTIC COMPOUNDS” (REGENTS OF THE UNIVERSITY OF MINNESOTA, priority 2017, published 2018).
# “Also recorded” adds a separate entry of the source. Read-outs that look alike come from different tables or passages of the source.
# Columns and labels:
# hMC4R = molecular target: T1, hMC4R (Homo sapiens, UniProt P32245); assay: AlphaScreen cAMP functional bioassay, hMC4R; type: cell-based; conditions: HEK293 cells stably expressing hMC4R
# T1 construct: Flag; expressed in transfected cells
# Method: Upon agonist stimulation, melanocortin receptors are known to signal through a Gαs-protein mediated signaling pathway that results in intracellular cAMP accumulation.
# Stable populations were selected for using G418 selection (0.7-1.0 mg/mL) and used in bioassays unless indicated otherwise. In vitro experimental ligands were dissolved to a 10^−2 M stock in DMSO and stored at −20° C. Subsequent dilutions were performed in each assay's specific buffer to achieve the final concentration in the well. The ligands were assayed as TFA salts.
# AlphaScreen cAMP Functional Bioassay
# The AlphaScreen® assay was performed as described by manufacturer.
# Cells were removed from plates using Gibco® Versene solution and pelleted by centrifugation (Sorvall Super T21 high speed centrifuge, swinging bucket rotor) at 800 rpm for five minutes. […] A 10 μL aliquot of cell suspension was counted manually using a hemocytometer after addition of Trypan blue dye (BioRad). Cells were again pelleted by centrifugation, and DPBS was gently aspirated. The pelleted cells were then resuspended in a solution of freshly made stimulation buffer (Hank's Balanced Salt Solution [HBSS 10× [−] sodium bicarbonate] and [−] phenol red, Gibco®], 0.5 mM isobutylmethylxanthine [IBMX], 5 mM HEPES buffer solution [1M, Gibco®], 0.1% bovine serum albumin [BSA] in Milli-Q water, pH=7.4) and anti-cAMP acceptor beads (1.0 unit per well, AlphaScreen®). […] The cells were then stimulated with ligand diluted in stimulation buffer to achieve their final concentrations in the well ranging from 10^−13 to 10^−4 M. The stimulated plates were incubated in a dark laboratory drawer at room temperature for two hours.
# Meanwhile, a biotinylated cAMP/streptavidin donor bead working solution was made by adding biotinylated cAMP (1 Unit/well, AlphaScreen®) and streptavidin donor beads (1 Unit/well, AlphaScreen®) to a lysis buffer (10% Tween-20, 5 mM HEPES buffer solution [1M, Gibco®], 0.1% bovine serum albumin [BSA] in Milli-Q water, pH=7.4). After the two hour stimulation, the biotinylated cAMP/Streptavidin donor bead working solution was added to each well under green light and mixed well by pipetting up and down. The cells were incubated for another two hours at room temperature in a dark drawer at room temperature. The plate was then read on an EnSpire™ Alpha plate reader using a pre-normalized assay protocol set by the manufacturer. Assays were performed with duplicate data points on each plate and repeated in at least three independent experiments.
# Dose response curves were analyzed using the PRISM program (v4.0; GraphPad Inc.).
# male wild type mice = type: in vivo; conditions: for energy expenditure vs saline / food intake vs saline / respiratory exchange ratio (RER) vs saline / water intake vs saline: 5 nmols CJL-5-58 or 5 nmols each CJL-1-14 and CJL-1-80
# Method: (§1) All experiments were performed in accordance with the Institutional Animal Care and Use Committee (IACUC) at the University of Minnesota. Female and male littermates with mixed background from C57BL/6J and 129/Sv inbred strains were 8 weeks old at the time of surgeries. Mice were individually housed after surgeries and for the remainder of the experiment. Mice were maintained on a 12 hr light/dark cycle (Lights off was at 11:59 AM) in a temperature controlled room (23-25° C.). In the nocturnal feeding paradigm, mice had free access to normal chow (Harlan Teklad 2018 Diet: 18.6% crude protein, 6.2% crude fat, 3.5% crude fiber, with energy density of 3.1 kcal/g). […] Mice had free access to tap water throughout all the experiments. The cannula placement validation studies and conventional cage studies were performed in standard mouse polycarbonate conventional cages provided by University of Minnesota's Research Animal Resources (RAR). Weekly cage changes were conducted by lab research staff.
# (§2) Mice were anesthetize with a mixture of ketamine (100 mg/kg) and xylazine (5 mg/kg) and were positioned in a stereotaxic apparatus (David Kopf Instruments). A 26-gauge cannula (Cat# 81C315GS4SPC; PlasticsOne, Roanoke, Va.) was inserted in the lateral cerebral ventricle at the coordinates 1.0 mm lateral and 0.46 mm posterior to bregma and 2.3 mm ventral to the skull (Franklin, K. B. J. & Paxinos, G. The Mouse Brain in Stereotaxic Coordinates. (Academic Press, 1997)).
# Each mouse was administered hPYY and saline on different days following a crossover design in the nocturnal feeding paradigm. In the nocturnal paradigm, compound is administered 2 hours prior to lights out with free access to food and water throughout the entire experiment. There was at least a 4 day washout period between administration to ensure that normal feeding patterns and body weight returned. Food intake and body weight were manually measured 2, 4, and 6 hours after hPYY or saline administration. A mouse with a validated cannula placement for the TSE cage experiments consumed at least 1.0 g more after hPYY administration compared to saline administration 4 hours post-administration.
# (§3) As stated above, conventional cage experiments were performed in standard mouse polycarbonate conventional cages. […] All experiments followed a cross-over paradigm in which the mouse received saline and compound on different days with a washout period in between each treatment. Statistical analysis was performed using SPSS V23 software (IBM) using a multivariate general linear model followed by a Bonferroni's post hoc test. Results are presented as Mean±SEM. Statistically significant was considered p<0.05.
# male MC4RKO mice = assay: ICV administration, conventional cages, male MC4RKO mice; type: in vivo
# Method: as §1, §2, §3
# In male MC4RKO mice, CJL-5-58 was administered at 5 nmols in both a nocturnal paradigm and a fasting-refeeding paradigm in standard conventional cages (FIG. 15). The dose was well handled in the nocturnal paradigm, but minimal effect was observed.
# T1 sequence (P32245 whole entry): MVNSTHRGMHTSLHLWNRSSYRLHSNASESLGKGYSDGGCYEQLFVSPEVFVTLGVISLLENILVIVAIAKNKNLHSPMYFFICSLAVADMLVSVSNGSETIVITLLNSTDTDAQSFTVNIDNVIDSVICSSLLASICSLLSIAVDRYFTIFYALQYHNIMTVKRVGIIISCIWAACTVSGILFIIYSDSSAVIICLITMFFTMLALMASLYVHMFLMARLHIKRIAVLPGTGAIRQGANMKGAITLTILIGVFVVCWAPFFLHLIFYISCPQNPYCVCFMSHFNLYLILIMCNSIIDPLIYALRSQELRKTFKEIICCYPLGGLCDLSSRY
compound,measurement,setting,value
"CC(=O)N[C@@H](Cc1cnc[nH]1)C(=O)N[C@H](Cc1ccccc1)C(=O)N[C@@H](CCCNC(=N)N)C(=O)N[C@@H](Cc1c[nH]c2ccccc12)C(=O)NCCCOCCOCCOCCCNC(=O)COCC(=O)N[C@@H](Cc1cnc[nH]1)C(=O)N[C@H](Cc1ccc2ccccc2c1)C(=O)N[C@@H](CCCNC(=N)N)C(=O)N[C@@H](Cc1c[nH]c2ccccc12)C(N)=O [CJL-5-58, Ac-His-DPhe-Arg-Trp-(PEDG20)-His-DNal(2′)-Arg-Trp-NH2]",cAMP agonist potency (in words),hMC4R,single digit nanomolar agonists
same,"RER, CJL-5-58 vs co-administration of CJL-1-14 and CJL-1-80",male wild type mice; fasting paradigm,"significant differences in RER at the 2, 3, 6, and 7 hour time points"
same,activity vs saline,male wild type mice; fasting paradigm,no significant differences were observed in activity
same,"energy expenditure, CJL-5-58 vs co-administration of CJL-1-14 and CJL-1-80",male wild type mice; fasting paradigm,significantly higher for CJL-5-58 at the 13 and 17 hour time points
same,"food intake, CJL-5-58 vs co-administration of CJL-1-14 and CJL-1-80",male wild type mice; fasting paradigm,significant differences in the food intake at 2 and 4 hour time point
same,number of mice that died,male wild type mice; fasting paradigm,one
same,energy expenditure reached after treatment,"male wild type mice; fasting paradigm, 5 nmol dose, baseline c.a. 12",17 to 19 kcal/h/kg
same,energy expenditure vs saline,male wild type mice; fasting paradigm,"significantly lower for the first 3 hours post-treatment; also recorded: increased energy expenditure is observed 15, 17, and 21 hours after compound administration"
same,food intake vs saline,male wild type mice; fasting paradigm,decrease in food intake up to 12 hours after administration
same,respiratory exchange ratio (RER) vs saline,male wild type mice; fasting paradigm,significantly lower RER was observed for the first 9 hours and at 17 hours
same,water intake vs saline,male wild type mice; fasting paradigm,"decrease in water intake was observed with 5 nmols of CJL-5-58 at time points 4, 6, 8, 10, and 12 hours"
same,number of adverse reactions,"male wild type mice; fasting paradigm, within 30 minutes of injection",four
same,time to recovery from adverse reactions,male wild type mice; mice experiencing adverse reactions,< 1 h
same,activity vs saline,male wild type mice; nocturnal paradigm,increase in activity was observed during the first 5 hours after administration
same,"any parameter, CJL-5-58 vs co-administration of CJL-1-14 and CJL-1-80",male wild type mice; nocturnal paradigm,no significant differences were observed for any parameter
same,number of adverse reactions,male wild type mice; nocturnal paradigm,2
same,number of mice that died,male wild type mice; nocturnal paradigm,one
same,energy expenditure vs saline,male wild type mice; nocturnal paradigm,"increase in energy expenditure was observed 5, 13, 15, and 16 hours after treatment"
same,food intake vs saline,male wild type mice; nocturnal paradigm,no significant effect was observed
same,respiratory exchange ratio (RER) vs saline,male wild type mice; nocturnal paradigm,significantly lowered RER values only until 2 hours after administration
same,water intake vs saline,male wild type mice; nocturnal paradigm,no difference in water intake was observed
same,toxicity,"male MC4RKO mice; ICV 2.5 to 5 nmols, conventional cages",Some toxicity was observed
same,adverse reactions,"male MC4RKO mice; fasting-refeeding, 5 nmols",some signs of adverse reactions
same,body weight vs saline,"male MC4RKO mice; fasting-refeeding, 5 nmols",no effect on mouse body weight
same,food intake vs saline,"male MC4RKO mice; fasting-refeeding, 5 nmols","decreased food intake at 2, 4, 6, 8 and 24 hours after compound administration"
same,body weight vs saline,"male MC4RKO mice; nocturnal paradigm, 5 nmols",significant increase in body weight 6 hours after compound administration
same,food intake vs saline,"male MC4RKO mice; nocturnal paradigm, 5 nmols",immediate reduction in food intake 2 hours after compound administration
same,tolerability,"male MC4RKO mice; nocturnal paradigm, 5 nmols",well handled; also recorded: looked healthy
